# Measured values: PubChem BioAssay AID1919015 (Molecular Pharmacology Branch, DTP, NCI, 2023)
# “And” between values parts separate entries of the source, which are not always exact repeats. Equal entries are not always repeated.
# Tested on: OVCAR-5 complex spheroids with HUVEC/MSC, viability, % test/control
# Assay: Anticancer human tumor OVCAR-5 cell line growth inhibition [AhR];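 further: spheroids exposed to compounds for 7 days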;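 on viability, T/C: 100% = DMSO vehicle control wells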
# Conditions: for viability, T/C: stronger effect = lower value
# Summary of the method: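 Spheroids combined tumor cells with HUVEC endothelial cells and human MSCs as stroma. AhR antagonists were paired with standard or investigational drugs, each dosed in half-log steps down from near clinical Cmax, or from 10 microM where Cmax was unknown.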
# [1] = curve of first compound, second compound 0.1 µM
# [2] = curve of first compound, second compound 0.316 µM
# [3] = curve of first compound, second compound 1 µM
# [4] = curve of first compound, second compound 3.16 µM
# [5] = curve of first compound, second compound 10 µM
# [6] = second compound 0.1 µM, first compound 0.0316 µM
# [7] = second compound 0.1 µM, first compound 0.1 µM
# [8] = second compound 0.1 µM, first compound 0.316 µM
# [9] = second compound 0.1 µM, first compound 1 µM
# [10] = second compound 0.1 µM, first compound 3.16 µM
# [11] = second compound 0.1 µM, first compound 10 µM
# [12] = second compound 0.316 µM, first compound 0.0316 µM
# [13] = second compound 0.316 µM, first compound 0.1 µM
# [14] = second compound 0.316 µM, first compound 0.316 µM
# [15] = second compound 0.316 µM, first compound 1 µM
# [16] = second compound 0.316 µM, first compound 3.16 µM
# [17] = second compound 0.316 µM, first compound 10 µM
# [18] = second compound 1 µM, first compound 0.0316 µM
# [19] = second compound 1 µM, first compound 0.1 µM
# [20] = second compound 1 µM, first compound 0.316 µM
# [21] = second compound 1 µM, first compound 1 µM
# [22] = second compound 1 µM, first compound 3.16 µM
# [23] = second compound 1 µM, first compound 10 µM
# [24] = second compound 3.16 µM, first compound 0.0316 µM
# [25] = second compound 3.16 µM, first compound 0.1 µM
# [26] = second compound 3.16 µM, first compound 0.316 µM
# [27] = second compound 3.16 µM, first compound 1 µM
# [28] = second compound 3.16 µM, first compound 3.16 µM
# [29] = second compound 3.16 µM, first compound 10 µM
# [30] = second compound 10 µM, first compound 0.0316 µM
# [31] = second compound 10 µM, first compound 0.1 µM
# [32] = second compound 10 µM, first compound 0.316 µM
# [33] = second compound 10 µM, first compound 1 µM
# [34] = second compound 10 µM, first compound 3.16 µM
# [35] = second compound 10 µM, first compound 10 µM
compound,measurement,setting,value
O=C(C=Cc1cccc(S(=O)(=O)Nc2ccccc2)c1)NO + Cc1cncc(-c2nc(NCCc3c[nH]c4ccccc34)c3ncn(C(C)C)c3n2)c1,IC50,[1],1.13 µM
same,IC50,[2],1.01 µM
same,IC50,[3],1.13 µM
same,IC50,[4],0.891 µM
same,IC50,[5],< 0.0316 µM
same,"viability, T/C",[6],95.8%
same,"viability, T/C",[7],87.4%
same,"viability, T/C",[8],70.6%
same,"viability, T/C",[9],52.4%
same,"viability, T/C",[10],30.4%
same,"viability, T/C",[11],7.81%
same,"viability, T/C",[12],95.1%
same,"viability, T/C",[13],88.1%
same,"viability, T/C",[14],70.2%
same,"viability, T/C",[15],52.1%
same,"viability, T/C",[16],24.9%
same,"viability, T/C",[17],6.95%
same,"viability, T/C",[18],87.9%
same,"viability, T/C",[19],88.3%
same,"viability, T/C",[20],70%
same,"viability, T/C",[21],55.3%
same,"viability, T/C",[22],25.1%
same,"viability, T/C",[23],6.35%
same,"viability, T/C",[24],79.4%
same,"viability, T/C",[25],75.8%
same,"viability, T/C",[26],66%
same,"viability, T/C",[27],49%
same,"viability, T/C",[28],23.1%
same,"viability, T/C",[29],5.52%
same,"viability, T/C",[30],23.3%
same,"viability, T/C",[31],26.7%
same,"viability, T/C",[32],23.4%
same,"viability, T/C",[33],24.9%
same,"viability, T/C",[34],16.4%
same,"viability, T/C",[35],2.82%
O=C(C=Cn1cnc(-c2cc(C(F)(F)F)cc(C(F)(F)F)c2)n1)NNc1cnccn1,"viability, T/C",compound 0.00949 µM,109% and 108% and 104%
same,"viability, T/C",compound 0.03 µM,108% and 109% and 105%
same,"viability, T/C",compound 0.0949 µM,101% and 99.5% and 96.1%
same,"viability, T/C",compound 0.3 µM,85.9% and 76.1% and 78.1%
same,"viability, T/C",compound 0.949 µM,68.2% and 58.4% and 60.8%
same,"viability, T/C",compound 3 µM,47% and 42% and 40.6%
same,IC50,curve of compound,2.56 µM and 1.61 µM and 1.71 µM
COc1ccc([C@@H](O)c2cc(-c3ncnc4cc(N5CCOCC5)ccc34)c(F)cc2Cl)nn1 + Cc1ccccc1N=Nc1ccc(NC(=O)c2ccnn2C)c(C)c1,IC50,[1],2.91 µM
same,IC50,[2],2.98 µM
same,IC50,[3],3.75 µM
same,IC50,[4],4.54 µM
same,IC50,[5],3.23 µM
same,"viability, T/C",[6],102%
same,"viability, T/C",[7],101%
same,"viability, T/C",[8],95.5%
same,"viability, T/C",[9],76.3%
same,"viability, T/C",[10],48.4%
same,"viability, T/C",[11],24.1%
same,"viability, T/C",[12],104%
same,"viability, T/C",[13],102%
same,"viability, T/C",[14],97.5%
same,"viability, T/C",[15],76.8%
same,"viability, T/C",[16],49.1%
same,"viability, T/C",[17],27.6%
same,"viability, T/C",[18],109%
same,"viability, T/C",[19],107%
same,"viability, T/C",[20],99.5%
same,"viability, T/C",[21],87.5%
same,"viability, T/C",[22],53.5%
same,"viability, T/C",[23],26%
same,"viability, T/C",[24],113%
same,"viability, T/C",[25],106%
same,"viability, T/C",[26],98.9%
same,"viability, T/C",[27],85.1%
same,"viability, T/C",[28],57.6%
same,"viability, T/C",[29],31.6%
same,"viability, T/C",[30],103%
same,"viability, T/C",[31],98.9%
same,"viability, T/C",[32],96.3%
same,"viability, T/C",[33],76.7%
same,"viability, T/C",[34],51.2%
same,"viability, T/C",[35],22.8%
COc1cc(C2c3cc4c(cc3C(OC3OC5COC(C)OC5C(O)C3O)C3COC(=O)C23)OCO4)cc(OC)c1O (centres undefined),"viability, T/C",compound 0.0316 µM,96.3% and 99.9% and 103%
same,"viability, T/C",compound 0.1 µM,98.8% and 99.4% and 103%
same,"viability, T/C",compound 0.316 µM,90.1% and 91.7% and 91.1%
same,"viability, T/C",compound 1 µM,73.2% and 79.8% and 64.9%
same,"viability, T/C",compound 3.16 µM,50% and 52.3% and 41.3%
same,"viability, T/C",compound 10 µM,37.2% and 34.4% and 30.3%
same,IC50,curve of compound,3.12 µM and 3.79 µM and 2.03 µM
